Like-named read-outs stand apart in the source and are kept apart here.
Legend:
IvoA-C = target: T1, IvoA-C (Emericella nidulans, UniProt C8V7P4); assay: Thioesterase assay of standalone IvoA-C with synthetic thioester substrates; type: biochemical, Aspergillus nidulans; details: pH 6.9, boiled enzyme control
T1 construct: were incubated with standalone IvoA C domain at pH 6.9; hexahistidine (His6) with TEV protease site (N); made in house; host or cells: E. coli BL21(DE3)
Description: FIG. 17 provides data and associated schematics for an In vitro assay of IvoA-C with synthetic thioester substrates. Synthetic thioester substrates (DL-tryptophan-S—N-acetylcysteamine, DL-Trp-SNAC: D-tryptophan-S-pantatheine, D-Trp-pant) were incubated with standalone IvoA C domain at pH 6.9. Enzymes were boiled to measure the nonenzymatic hydrolysis. Free tryptophan and tryptophanyl thioesters were separated by HPLC.
The thioesterase activity assay of standalone IvoA-C was performed in ammonium acetate buffer (20 mM, pH=6.9). Typically, 5 mM synthetic substrate (5% DMSO) was incubated with 50 μM enzyme. The reaction was analyzed by HPLC. Boiled enzyme was used as control to measure the background nonenzymatic hydrolysis.

IvoA A domain = target: T2, IvoA A domain (Emericella nidulans, UniProt C8V7P4, S785A); assay: Hydroxylamine-based colorimetric adenylation assay; type: biochemical, Aspergillus nidulans
T2 construct: The full-length wild-type IvoA and mutants were expressed in S. cerevisiae JHY686 strain; octahistidine (His8) (N); made in house; host or cells: Saccharomyces cerevisiae JHY686
T2 sequence (C8V7P4 whole entry S785A): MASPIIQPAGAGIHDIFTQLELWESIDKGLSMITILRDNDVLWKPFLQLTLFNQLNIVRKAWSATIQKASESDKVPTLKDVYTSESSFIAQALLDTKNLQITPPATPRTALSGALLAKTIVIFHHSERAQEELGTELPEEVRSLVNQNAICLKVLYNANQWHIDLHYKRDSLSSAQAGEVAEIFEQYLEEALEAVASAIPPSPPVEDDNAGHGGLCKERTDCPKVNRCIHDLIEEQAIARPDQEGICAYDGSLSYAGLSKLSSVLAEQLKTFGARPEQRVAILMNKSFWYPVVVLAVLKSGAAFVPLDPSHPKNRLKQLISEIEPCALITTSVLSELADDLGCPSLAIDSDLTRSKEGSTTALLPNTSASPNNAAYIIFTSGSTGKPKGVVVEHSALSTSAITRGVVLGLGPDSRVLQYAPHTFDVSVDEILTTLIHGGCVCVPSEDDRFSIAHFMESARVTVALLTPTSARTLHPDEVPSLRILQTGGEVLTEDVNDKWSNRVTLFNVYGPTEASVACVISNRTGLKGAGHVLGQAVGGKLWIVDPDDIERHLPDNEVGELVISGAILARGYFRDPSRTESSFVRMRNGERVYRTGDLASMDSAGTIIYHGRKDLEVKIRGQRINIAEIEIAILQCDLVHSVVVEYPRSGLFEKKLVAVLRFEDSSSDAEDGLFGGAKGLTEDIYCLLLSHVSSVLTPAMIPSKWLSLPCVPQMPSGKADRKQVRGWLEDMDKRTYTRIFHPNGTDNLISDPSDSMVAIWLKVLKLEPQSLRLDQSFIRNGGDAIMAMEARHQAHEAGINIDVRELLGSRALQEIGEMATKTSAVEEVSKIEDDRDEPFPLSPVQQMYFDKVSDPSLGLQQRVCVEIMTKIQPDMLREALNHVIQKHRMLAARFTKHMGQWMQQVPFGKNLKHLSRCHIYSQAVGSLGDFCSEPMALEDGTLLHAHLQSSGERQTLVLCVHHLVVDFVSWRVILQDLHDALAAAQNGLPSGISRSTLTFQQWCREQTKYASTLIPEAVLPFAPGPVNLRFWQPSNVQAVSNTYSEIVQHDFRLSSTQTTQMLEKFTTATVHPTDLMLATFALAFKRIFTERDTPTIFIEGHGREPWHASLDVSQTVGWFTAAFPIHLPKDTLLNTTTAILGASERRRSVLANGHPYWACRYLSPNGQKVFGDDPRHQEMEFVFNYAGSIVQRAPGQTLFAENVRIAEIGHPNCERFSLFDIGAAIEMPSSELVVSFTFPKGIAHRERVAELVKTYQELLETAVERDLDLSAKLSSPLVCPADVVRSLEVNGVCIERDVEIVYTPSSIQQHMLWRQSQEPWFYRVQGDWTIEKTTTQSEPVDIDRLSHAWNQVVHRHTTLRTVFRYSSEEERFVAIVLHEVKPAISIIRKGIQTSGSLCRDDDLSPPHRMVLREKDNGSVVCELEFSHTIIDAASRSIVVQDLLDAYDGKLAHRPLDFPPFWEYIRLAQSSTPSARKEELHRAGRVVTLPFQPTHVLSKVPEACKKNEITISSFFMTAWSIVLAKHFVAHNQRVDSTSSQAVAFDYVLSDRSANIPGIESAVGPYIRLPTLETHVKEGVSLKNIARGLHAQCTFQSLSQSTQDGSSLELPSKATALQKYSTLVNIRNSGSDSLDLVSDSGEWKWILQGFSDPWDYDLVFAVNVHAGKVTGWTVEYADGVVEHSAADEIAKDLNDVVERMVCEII
Description: FIG. 9 provides data showing Hydroxylamine-based colorimetric assay for studying substrate specificity of IvoA A domain. The reaction condition is 2 μM of IvoA-T^0+3 mM of ATP+0.1 mM of carboxylic acid substrate+15 mM hydroxylamine+15 mM MgCl2 in Tris buffer (pH 8.0). The reaction is quenched after 3 hrs by addition of equivalent volume (150 μL) of stopping solution (10% (w/v) FeCl3.H2O and 3.3% (w/v) trichloroacetic acid dissolved in 0.7 M HCl). The precipitated enzyme was removed by centrifugation and the supernatant was measured for its absorbance at 540 nm.
FIG. 19 provides data showing Adenylation assay of IvoA A domain with substituted tryptophan amino acids. The reaction was performed similarly according to the assay described in the caption of FIG. 9.

IvoA = target: T3, IvoA (Emericella nidulans, UniProt C8V7P4); assay: Biocatalytic stereoinversion or deracemization of tryptophan and substituted tryptophans by IvoA (chiral-HPLC); type: biochemical, Aspergillus nidulans; details: for ee (%): ee of D-enantiomer, 1.5 mM substrates, 5 μM IvoA, 5 mM ATP, 10 mM MgCl2, 100 mM K2HPO4 buffer, pH 7.5
T3 construct: The full-length wild-type IvoA and mutants were expressed in S. cerevisiae JHY686 strain; octahistidine (His8) (N); made in house; host or cells: Saccharomyces cerevisiae JHY686
T3 sequence (C8V7P4 other isoform, or with tags, fused parts or gaps): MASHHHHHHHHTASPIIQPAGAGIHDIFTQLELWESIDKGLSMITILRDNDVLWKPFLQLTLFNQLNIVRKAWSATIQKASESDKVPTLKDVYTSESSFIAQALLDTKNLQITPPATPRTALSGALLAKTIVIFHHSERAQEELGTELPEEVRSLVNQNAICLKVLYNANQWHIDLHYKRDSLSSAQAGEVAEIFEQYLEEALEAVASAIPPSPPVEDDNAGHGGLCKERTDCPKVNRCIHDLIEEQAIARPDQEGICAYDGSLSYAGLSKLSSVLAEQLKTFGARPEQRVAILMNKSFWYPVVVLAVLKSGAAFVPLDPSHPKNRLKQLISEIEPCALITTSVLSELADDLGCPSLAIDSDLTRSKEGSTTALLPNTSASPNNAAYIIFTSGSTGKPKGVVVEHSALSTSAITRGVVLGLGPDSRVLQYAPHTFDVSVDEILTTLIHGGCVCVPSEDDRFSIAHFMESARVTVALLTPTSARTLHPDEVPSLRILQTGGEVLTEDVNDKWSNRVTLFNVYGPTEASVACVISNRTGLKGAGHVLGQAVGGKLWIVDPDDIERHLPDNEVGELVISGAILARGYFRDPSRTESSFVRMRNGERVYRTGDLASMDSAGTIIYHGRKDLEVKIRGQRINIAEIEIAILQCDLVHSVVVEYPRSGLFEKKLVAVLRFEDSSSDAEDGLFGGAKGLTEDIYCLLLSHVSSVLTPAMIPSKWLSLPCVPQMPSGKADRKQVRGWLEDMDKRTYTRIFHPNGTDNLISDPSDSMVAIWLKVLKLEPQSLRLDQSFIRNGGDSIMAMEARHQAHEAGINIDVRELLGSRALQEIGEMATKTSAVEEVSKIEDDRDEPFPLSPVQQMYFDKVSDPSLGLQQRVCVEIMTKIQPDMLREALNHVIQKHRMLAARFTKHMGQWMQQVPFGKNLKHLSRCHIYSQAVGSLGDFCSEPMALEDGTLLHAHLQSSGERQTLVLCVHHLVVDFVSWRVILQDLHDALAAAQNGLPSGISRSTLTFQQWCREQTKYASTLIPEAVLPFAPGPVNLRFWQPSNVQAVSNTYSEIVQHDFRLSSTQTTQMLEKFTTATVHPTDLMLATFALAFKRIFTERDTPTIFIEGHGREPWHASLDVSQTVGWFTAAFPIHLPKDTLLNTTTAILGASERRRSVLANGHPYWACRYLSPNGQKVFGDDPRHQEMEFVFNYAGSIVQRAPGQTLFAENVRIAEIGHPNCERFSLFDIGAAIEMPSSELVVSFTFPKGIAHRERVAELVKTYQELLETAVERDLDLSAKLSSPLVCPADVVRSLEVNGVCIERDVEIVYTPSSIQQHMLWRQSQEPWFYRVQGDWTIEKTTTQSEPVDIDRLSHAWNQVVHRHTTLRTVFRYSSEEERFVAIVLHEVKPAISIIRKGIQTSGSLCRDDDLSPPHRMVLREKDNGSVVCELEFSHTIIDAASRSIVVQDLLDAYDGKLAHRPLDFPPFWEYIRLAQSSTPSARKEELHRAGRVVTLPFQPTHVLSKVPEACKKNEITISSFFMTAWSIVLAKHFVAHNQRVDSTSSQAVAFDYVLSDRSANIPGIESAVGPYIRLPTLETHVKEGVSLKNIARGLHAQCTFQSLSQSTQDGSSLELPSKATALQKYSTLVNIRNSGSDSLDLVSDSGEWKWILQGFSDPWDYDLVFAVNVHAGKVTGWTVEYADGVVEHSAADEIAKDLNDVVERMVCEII
Description: […] The solvent was removed in vaccuo by speedvac and the residue was dissolved in ethanol and analyzed by chiral-HPLC by using a Crownpak® CR(+) column (150 mm×4 mm×3.5 μm, Daicel) at room temperature. The mobile phase was aq. HClO4 1% (w/v) supplemented with 15% (v/v) MeOH and the flow rate was 1.0 ml/min.

[1] = Apparent steady-state kinetics of L-tryptophan stereoinversion by IvoA and mutants (chiral-HPLC quantification of D-tryptophan); type: biochemical, Aspergillus nidulans; details: for kcat^app / Km: L-tryptophan stereoinversion; for Km: read-out: Km^app
Description: FIG. 11 provides data showing the Apparent steady-state kinetics of IvoA catalyzed stereoinversion. […] The kinetic constants were shown in the main text. For WT, 1 μM enzyme was used in each assay and the reaction was quenched after 2 min. For E0 mutant, 10 μM enzyme was used in each assay and the reaction was quenched after 60 min. For C0 mutant, 50 μM enzyme was used in each assay and the reaction was quenched after 60 min.
Chiral-resolution allowed us to determine the apparent steady-state kinetics by quantifying D-tryptophan formation (Table 1, FIG. 11). […] Both E and C domains are catalytically important for IvoA, as inactivating either domain by mutating the catalytic histidine residues (H963A and H1428A) substantially compromised the apparent turnover number kcat (420-fold by E^0 while 4700-fold by C^0).
The ATP-dependent stereoinversion activity was typically performed with 2-5 μM IvoA, 1 mM L/D-tryptophan, 3 mM ATP and 10 mM MgCl2 in 100 mM phosphate buffer (pH 7.5), and the reaction was quenched by mixing with 5-volume of methanol. The solvent was removed in vaccuo by speedvac and the residue was dissolved in ethanol and analyzed by chiral-HPLC by using a Crownpak® CR(+) column (150 mm×4 mm×3.5 μm, Daicel) at room temperature. The mobile phase was aq. HClO4 1% (w/v) supplemented with 15% (v/v) MeOH and the flow rate was 1.0 ml/min.

[2] = enzyme >50 μM, overnight incubation
Description: The reaction condition is 100 μM of IvoA+2 mM of ATP+1 mM of L-tryptophan+1 mM of AcCoA+5 mM MgCl2 in phosphate buffer (pH 7.5).
Acetyltryptophan acetyltransferase activity was performed by incubating 1-100 μM IvoA with 1 mM D-tryptophan or other substrates with 1 mM acetyl-CoA or 1 mM acetyl-phosphate in 100 mM phosphate buffer (pH 7.5). The reaction mixture was incubated at room temperature and the reaction was quenched at different time interval by mixing with 5-fold volume of methanol. The mixture was clarified by centrifugation to remove protein and salts, and the supernatant was dried in vaccuo by using speedvac. The residue was dissolved in methanol and subjected to LC-MS analysis. For ATP-dependent acetyltransferase activity, 1 mM LD-tryptophan, 5 mM ATP, 1 mM CoA and 5 mM MgCl2 were used.

T1 sequence (C8V7P4 1325-1477): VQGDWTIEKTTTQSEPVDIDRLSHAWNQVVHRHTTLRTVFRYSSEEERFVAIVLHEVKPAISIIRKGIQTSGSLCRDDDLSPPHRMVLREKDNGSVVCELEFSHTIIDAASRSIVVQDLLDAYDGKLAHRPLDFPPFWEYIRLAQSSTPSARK

Compound	ee (%) (IvoA)	further results
CC(=O)NCCSC(=O)C(N)Cc1c[nH]c2ccccc12 (racemic) [DL-Trp-SNAC, DL-tryptophan-S—N-acetylcysteamine]		hydrolysis by IvoA-C versus nonenzymatic (IvoA-C): not good substrate
Cc1[nH]c2ccccc2c1CC(N)C(=O)O (racemic) [Entry 13, 2-Me-DL-tryptophan]	1.3	activation by A domain (IvoA A domain): inefficient activation; conversion by IvoA / substrate quality (IvoA): No conversion
CC(C)(CO)[C@@H](O)C(=O)NCCC(=O)NCCSC(=O)[C@H](N)Cc1c[nH]c2ccccc12 [D-Trp-pant, D-tryptophan-S-pantatheine]		hydrolysis by IvoA-C versus nonenzymatic (IvoA-C): not good substrate
N[C@H](Cc1c[nH]c2ccccc12)C(=O)O [D-tryptophan]		conversion by IvoA / substrate quality (IvoA): cannot convert
N[C@@H](Cc1c[nH]c2ccccc12)C(=O)O [Entry 1, L-tryptophan]	>99	activation by A domain (IvoA A domain): preferred substrate; time to complete conversion of L-tryptophan to D-tryptophan (IvoA; 1 mM L-tryptophan, chiral-HPLC): 3 h
COc1ccc2[nH]cc(C[C@H](N)C(=O)O)c2c1 [Entry 2, 5-OMe-L-tryptophan]	>99	
N#Cc1ccc2[nH]cc(CC(N)C(=O)O)c2c1 (stereo not shown) [Entry 3]	63	conversion by IvoA / substrate quality (IvoA): poor substrates
NC(Cc1c[nH]c2ccc([N+](=O)[O-])cc12)C(=O)O (stereo not shown) [Entry 4]	44	conversion by IvoA / substrate quality (IvoA): poor substrates
NC(Cc1c[nH]c2cccc(F)c12)C(=O)O (stereo not shown) [Entry 5]	>99	
NC(Cc1c[nH]c2ccc(F)cc12)C(=O)O (stereo not shown) [Entry 6]	>99	
NC(Cc1c[nH]c2cc(F)ccc12)C(=O)O (stereo not shown) [Entry 7]	>99	
NC(Cc1c[nH]c2ccc(Cl)cc12)C(=O)O (stereo not shown) [Entry 8]	>99	
NC(Cc1c[nH]c2cc(Cl)ccc12)C(=O)O (stereo not shown) [Entry 9]	98	
NC(Cc1c[nH]c2ccc(Br)cc12)C(=O)O (stereo not shown) [Entry 10]	>99	
NC(Cc1c[nH]c2cc(Br)ccc12)C(=O)O (stereo not shown) [Entry 11]	75	conversion by IvoA / substrate quality (IvoA): poor substrates
NC(Cc1c[nH]c2c(Br)cccc12)C(=O)O (stereo not shown) [Entry 12]	87	conversion by IvoA / substrate quality (IvoA): poor substrates
Cc1cccc2[nH]cc(CC(N)C(=O)O)c12 (stereo not shown) [Entry 14]	>99	
Cc1ccc2[nH]cc(CC(N)C(=O)O)c2c1 (stereo not shown) [Entry 15]	>99	
Cc1ccc2c(CC(N)C(=O)O)c[nH]c2c1 (stereo not shown) [Entry 16]	97	
Cc1cccc2c(CC(N)C(=O)O)c[nH]c12 (stereo not shown) [Entry 17]	>99	
WT: wild-type single-module nonribosomal peptide synthetase IvoA from Aspergillus nidulans		kcat^app [1]: 0.633 ± 0.05 s⁻¹; kcat^app ([1]; listed as IvoA): 0.633 s⁻¹; Km ([1]; listed as IvoA): ~50 µM; Km [1]: 50 ± 10 µM; Ki ([1]; substrate inhibition by L-tryptophan, read-out: Ki^app (substrate inhibition)): 4 mM; kobs^app of N-acetyl-D-tryptophan formation [2]: < 0.1 h⁻¹

Source: US20220315967A1, “METHODS FOR PRODUCING D-TRYPTOPHAN AND SUBSTITUTED D-TRYPTOPHANS” (priority 2019, published 2022)
